Results published in PubChem BioAssay (NCI).
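The concentration for 50% growth inhibition is given as GI50. TGI marks complete inhibition of growth.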

Legend:
Assay in all cases: inhibition of tumour cell growth, NCI panel, 384-well format
A498 renal = system: A498 renal
ACHN renal = system: ACHN renal
CAKI-1 renal = system: CAKI-1 renal
CCRF-CEM leukemia = system: CCRF-CEM leukemia
COLO 205 colon = system: COLO 205 colon
EKVX NSCLC = system: EKVX NSCLC
HOP-92 NSCLC = system: HOP-92 NSCLC
MDA-MB-468 breast = system: MDA-MB-468 breast
NCI-H226 lung = system: NCI-H226 lung
OVCAR-4 ovarian = system: OVCAR-4 ovarian
PC-3 prostate = system: PC-3 prostate
SK-OV-3 ovarian = system: SK-OV-3 ovarian
T-47D breast = system: T-47D breast

Question: Which results are given for C[C@@H]1CN(CC(=O)N2CC(C)(C)c3nc(CO)c(Cc4ccc(F)cc4)cc32)[C@@H](CN2CCOC[C@H]2C)CN1?
Answer: GI50 (A498 renal): 21.5 µM; TGI (A498 renal): 53.2 µM; GI50 (ACHN renal): 61.8 µM; TGI (ACHN renal): > 100 µM; GI50 (CAKI-1 renal): 27.9 µM; TGI (CAKI-1 renal): 54 µM; GI50 (CCRF-CEM leukemia): 16.1 µM; TGI (CCRF-CEM leukemia): 42.7 µM; GI50 (COLO 205 colon): 20.5 µM; TGI (COLO 205 colon): 47 µM; GI50 (EKVX NSCLC): 29.9 µM; TGI (EKVX NSCLC): > 88.8 µM; GI50 (HOP-92 NSCLC): 14.6 µM; TGI (HOP-92 NSCLC): 43.8 µM; GI50 (MDA-MB-468 breast): 0.483 µM; TGI (MDA-MB-468 breast): 14.8 µM; GI50 (NCI-H226 lung): 40.4 µM; TGI (NCI-H226 lung): > 82.3 µM; GI50 (OVCAR-4 ovarian): 0.015 µM; TGI (OVCAR-4 ovarian): 0.112 µM; GI50 (PC-3 prostate): 65.2 µM; TGI (PC-3 prostate): > 100 µM; GI50 (SK-OV-3 ovarian): < 0.0207 µM; TGI (SK-OV-3 ovarian): 4.32 µM; GI50 (T-47D breast): 22.4 µM; TGI (T-47D breast): 49 µM
